Common to all, as to test: NCI-60 cell line screen, 48 h
The test system of experiment [1] is SF-539 CNS.
Experiment [2] concerns HL-60(TB) leukemia.
The subject of experiment [3] is UACC-62 melanoma.
The subject of experiment [4] is SK-OV-3 ovarian.
Experiment [5] has as its system A549 NSCLC.
Experiment [6] has as its system SF-268 CNS.
Experiment [7] concerns NCI/ADR-RES ovarian.
Experiment [8] has as its system U251 CNS.
For experiment [9], the system named is OVCAR-4 ovarian.
The test system of experiment [10] is MDA-MB-435.

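In this assay, cells in 96-well plates receive the compound at five concentrations for 48 hours. Endpoints are linearly interpolated between the surrounding concentrations. GI50 is the concentration that inhibits growth by half. TGI is the concentration that stops growth completely.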

Drawing on PubChem BioAssay (NCI), this text covers TGI and GI50 for 14 compounds.

Turning to `C#CCn1c(=O)c(C#N)c(O)c2cc3ccccc3nc21`, the TGI in [1] was over 100 µM; in experiment [2], over 100 µM; in experiment [3] it was over 100 µM; in experiment [4], over 100 µM; in experiment [5] it was over 100 µM; in experiment [6] it was over 31.6 µM. In addition, the TGI in experiment [7] and in experiment [8] was over 100 µM in each case.
With `CC1(Cl)CC2C(CC1Sc1nnnn1-c1ccccc1)C2(C)C` (stereo not drawn), the TGI was over 100 µM in experiment [1]; 49.4 µM in experiment [2]; over 100 µM in experiment [9]; over 100 µM in experiment [3]; over 100 µM in experiment [5]; over 100 µM in experiment [6].
`COc1ccc(/C=C2\N=C(c3ccccc3)N(C3Nc4cc5c(cc4S3)NC(N3C(=O)/C(=C/c4ccc(OC)cc4)N=C3c3ccccc3)S5)C2=O)cc1` (stereo not drawn): the TGI in [1] was 29.2 µM; in [10] it was over 100 µM; in experiment [2], over 100 µM; in [9] it was over 100 µM; in [5] it was over 100 µM; in experiment [6], over 100 µM. In addition, the figures for the TGI in experiment [7] and in experiment [8] were 48 µM and 63.7 µM, respectively.
`O=C1/C(=C2\Sc3c(ccc(Cl)c3Cl)C2=O)Sc2c1ccc(Cl)c2Cl`: the TGI in [1], in [10], in [9], in experiment [3], in experiment [5] and in experiment [6] was over 100 µM each time. The TGI in [7] and in [8] was over 100 µM in each case.
For `CCOc1cc(C2CC(c3ccc(NS(=O)(=O)c4cc([N+](=O)[O-])ccc4C)cc3)=NN2)ccc1O` (stereo not drawn), the TGI was over 100 µM in [1]; 85.9 µM in experiment [10]; 50.5 µM in experiment [2]; 71.4 µM in [9]; 30.3 µM in experiment [3]; over 100 µM in experiment [5]. Also, the TGI is over 100 µM in experiment [6] and 71.3 µM in [7].
With `C[C@]12CC[C@H](O)CC1=CC[C@@H]1[C@@H]2CC[C@]2(C)/C(=N/OCCN3CCCC3)CC[C@@H]12`, the TGI in experiment [1] is 28.1 µM; in experiment [10] it was 29.4 µM; in experiment [2], 23 µM; in experiment [9] it was 36 µM; in [3], 30.1 µM; in [6], over 100 µM. For the same compound, the results for the TGI in experiment [7] and in experiment [8] were 52.7 µM and 36.2 µM, respectively.
For `CC(C)N(C)C(=O)C12C3C4C1C1C2C3C41C#N` (stereo not drawn), the TGI in experiment [1], in experiment [10], in [2], in experiment [9], in [3] and in experiment [5] was over 100 µM in each case. Moreover, the TGI in experiment [6], in experiment [7] and in [8] was over 100 µM each time.
Take `Nc1cc(N2CCCC2)nc(=O)n1Cc1ccccc1`: the TGI in experiment [1], in [10], in experiment [2], in [9], in [5] and in [6] was over 100 µM each time. Besides, the TGI in experiment [7] and in experiment [8] was over 100 µM each time.
In the case of `COc1cc2c(cc1OC)-c1c3c(cc4c1[C@@H](C2)N(C)CC4)OCO3`, the TGI amounted to 16.5 µM in experiment [1]; 29.9 µM in experiment [2]; 22.8 µM in experiment [9]; 20.2 µM in experiment [3]; 50.6 µM in [4]; 32.2 µM in [5]. The values for the TGI in experiment [6], in [7] and in experiment [8] were 38.2 µM, 30.2 µM and 48.8 µM, respectively.
Regarding `COc1cc(S(=O)(=O)Nc2ccc(C3=NNC(c4ccccc4)C3)cc2)ccc1F` (stereo not drawn), the GI50 was 40 µM in [1]; 47.2 µM in [10]; 50.6 µM in [9]; over 100 µM in experiment [4]; 53.9 µM in experiment [5]; 65.1 µM in experiment [6]. Besides, the GI50 in [7] was 36.3 µM; in [8], 43.5 µM. Moreover, the TGI in experiment [1] was over 100 µM; in experiment [10], over 100 µM; in experiment [9], over 100 µM; in [3] it was 45.2 µM; in experiment [4], over 100 µM; in [5], over 100 µM. Also, the TGI in experiment [6], in [7] and in experiment [8] was over 100 µM throughout.
For the compound `NNC(=S)N1CCN(C(=S)NN)CC1`, the TGI in experiment [10], in experiment [2], in [9], in experiment [3], in experiment [4] and in [5] was over 100 µM in each case. Moreover, the TGI in experiment [6] and in experiment [8] was over 100 µM in each case.
In the case of `CSC1=NS(=O)(=O)c2cc(C(=O)NN(C)C(=O)c3cc4c(cc3Cl)SC(SC)=NS4(=O)=O)c(Cl)cc2S1`, the TGI in [1], in experiment [2], in [9], in experiment [4], in experiment [5] and in experiment [6] was over 10 µM in each case. Besides, the TGI in [7] and in experiment [8] was over 10 µM in each case.
Turning to `COc1cc(C2SCC(=O)N2c2ccc(Oc3ccc(Cl)cc3)c(Cl)c2)cc(OC)c1OC` (stereo not drawn), the TGI in experiment [1] was 54.2 µM; in [10] it was 41.3 µM; in experiment [9] it was over 100 µM; in experiment [3] it was 30.9 µM; in experiment [4], 33.6 µM; in [5], 69.2 µM. The results for the TGI in experiment [6], in [7] and in experiment [8] were 31 µM, 30.4 µM and over 100 µM, respectively.
Consider `O=C(NCc1ccc(Cl)cc1)c1cc2sccc2nc1C(F)(F)F`, for which the TGI was 70 µM in [1]; over 100 µM in experiment [10]; 44.8 µM in [9]; over 100 µM in experiment [3]; over 100 µM in experiment [4]; over 100 µM in experiment [5]. Also, the TGI in experiment [6] is 66.9 µM; in experiment [7], over 100 µM; in experiment [8] it was 44.6 µM.
